Inconclusive results and toxic doses are left out. The calls were made as follows: active = survival T/C of 150% or more; inactive = T/C below 125% in these data.
Test system: CD2F1 mice, L1210 leukemia ip, survival T/C
Assay: NCI In Vivo Anticancer Drug Screen. Data for tumor model L1210 Leukemia (intraperitoneal) in CD2F1 (CDF1) mice
Conditions: higher = longer survival
Summary of the method: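 Tumor-bearing mice (transplanted tumor) were split into treated and vehicle control groups, and the measured endpoint of each treated group was divided by that of its vehicle controls.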

[1] = endpoint: mean survival time, dose: 100.0 mg/kg/injection, schedule: Q04DX002 (ip), vehicle: saline with Tween-80
[2] = endpoint: mean survival time, dose: 200.0 mg/kg/injection, schedule: Q04DX002 (ip), vehicle: saline with Tween-80
[3] = endpoint: mean survival time, dose: 400.0 mg/kg/injection, schedule: Q04DX002 (ip), vehicle: saline with Tween-80
[4] = endpoint: mean survival time, dose: 100.0 mg/kg/injection, schedule: Q01DX009 (ip), vehicle: saline with Tween-80
[5] = endpoint: mean survival time, dose: 100.0 mg/kg/injection, schedule: Q04DX003 (ip), vehicle: saline with Tween-80
[6] = endpoint: mean survival time, dose: 200.0 mg/kg/injection, schedule: Q01DX009 (ip), vehicle: saline with Tween-80
[7] = endpoint: mean survival time, dose: 200.0 mg/kg/injection, schedule: Q04DX003 (ip), vehicle: saline with Tween-80
[8] = endpoint: mean survival time, dose: 400.0 mg/kg/injection, schedule: Q01DX009 (ip), vehicle: saline with Tween-80
[9] = endpoint: mean survival time, dose: 400.0 mg/kg/injection, schedule: Q04DX003 (ip), vehicle: saline with Tween-80
[10] = endpoint: mean survival time, dose: 100.0 mg/kg/injection, schedule: Q04DX003 (ip), vehicle: saline
[11] = endpoint: mean survival time, dose: 200.0 mg/kg/injection, schedule: Q04DX003 (ip), vehicle: saline

Measured: T/C

[CH3][Sb]([CH3])([CH3])([O]C(=O)C(Cl)(Cl)Cl)[O]C(=O)C(Cl)(Cl)Cl
inactive: [1] 98 % of control | [2] 107 % of control | [3] 103 % of control

C=Cc1ccc(OC2OC(COC(C)=O)C(OC3OC(COC(C)=O)C(OC(C)=O)C(OC(C)=O)C3OC(C)=O)C(OC(C)=O)C2OC(C)=O)cc1 (configuration not stated)
inactive: endpoint: mean survival time, dose: 75.0 mg/kg/injection, schedule: Q01DX001 (ip), vehicle: other 92 % of control | endpoint: mean survival time, dose: 150.0 mg/kg/injection, schedule: Q01DX001 (ip), vehicle: other 95 % of control | endpoint: mean survival time, dose: 300.0 mg/kg/injection, schedule: Q01DX001 (ip), vehicle: other 92 % of control

CNC(=O)C(=O)NC
inactive: [4] 96 % of control | [5] 101 % of control | [6] 98 % of control | [7] 98 % of control | [8] 98 % of control | [9] 101 % of control

CN(C)/N=C/c1ccccn1
inactive: endpoint: mean survival time, dose: 25.0 mg/kg/injection, schedule: Q04DX003 (ip), vehicle: saline 98 % of control | endpoint: mean survival time, dose: 50.0 mg/kg/injection, schedule: Q04DX003 (ip), vehicle: saline 95 % of control | [10] 101 % of control | [11] 120 % of control

CC1=CC(C)(C)Nc2ccc(CSc3ccccc3)cc21
inactive: endpoint: mean survival time, dose: 12.5 mg/kg/injection, schedule: Q01DX009 (ip), vehicle: DMSO 102 % of control | endpoint: mean survival time, dose: 25.0 mg/kg/injection, schedule: Q01DX009 (ip), vehicle: DMSO 95 % of control | endpoint: mean survival time, dose: 25.0 mg/kg/injection, schedule: Q01DX009 (ip), vehicle: other 97 % of control | endpoint: mean survival time, dose: 50.0 mg/kg/injection, schedule: Q01DX009 (ip), vehicle: DMSO 97 % of control | endpoint: mean survival time, dose: 50.0 mg/kg/injection, schedule: Q01DX009 (ip), vehicle: other 93 % of control | endpoint: mean survival time, dose: 100.0 mg/kg/injection, schedule: Q01DX009 (ip), vehicle: other 96 % of control

COc1ccc2c(c1)CCCC2=O
inactive: [4] 102 % of control | [5] 90 % of control | [6] 94 % of control | [7] 93 % of control | [9] 98 % of control

Cc1ccccc1CC(C)c1ccccc1 (configuration not stated)
inactive: endpoint: mean survival time, dose: 50.0 mg/kg/injection, schedule: Q01DX009 (ip), vehicle: saline with Tween-80 101 % of control | [4] 101 % of control | [5] 90 % of control | [6] 90 % of control | [7] 88 % of control

O=[N+]([O-])c1ccc(N/N=C/c2ccccn2)cc1
inactive: endpoint: mean survival time, dose: 100.0 mg/kg/injection, schedule: Q04DX003 (ip), vehicle: Klucel (hydroxypropylcellulose) (HPC) 96 % of control | endpoint: mean survival time, dose: 200.0 mg/kg/injection, schedule: Q04DX003 (ip), vehicle: Klucel (hydroxypropylcellulose) (HPC) 89 % of control | endpoint: mean survival time, dose: 400.0 mg/kg/injection, schedule: Q04DX003 (ip), vehicle: Klucel (hydroxypropylcellulose) (HPC) 94 % of control

O=P(O)(c1cc(Cl)cc(Cl)c1)c1cc(Cl)cc(Cl)c1
inactive: endpoint: mean survival time, dose: 18.8 mg/kg/injection, schedule: Q04DX003 (ip), vehicle: saline 100 % of control | endpoint: mean survival time, dose: 37.5 mg/kg/injection, schedule: Q04DX003 (ip), vehicle: saline 100 % of control | endpoint: mean survival time, dose: 75.0 mg/kg/injection, schedule: Q04DX003 (ip), vehicle: saline 102 % of control

NC(=O)c1csc(NC2OC(CO)C(O)C(O)C2O)n1 (configuration not stated)
inactive: endpoint: mean survival time, dose: 12.5 mg/kg/injection, schedule: Q01DX005 (ip), vehicle: water 98 % of control | endpoint: mean survival time, dose: 25.0 mg/kg/injection, schedule: Q01DX005 (ip), vehicle: water 96 % of control | endpoint: mean survival time, dose: 50.0 mg/kg/injection, schedule: Q01DX005 (ip), vehicle: water 101 % of control | endpoint: mean survival time, dose: 100.0 mg/kg/injection, schedule: Q01DX005 (ip), vehicle: water 96 % of control | endpoint: mean survival time, dose: 200.0 mg/kg/injection, schedule: Q01DX005 (ip), vehicle: water 98 % of control

Cc1c(C)c(OC(=O)c2ccccc2)c(Br)c(C)c1OC(=O)c1ccccc1
inactive: endpoint: mean survival time, dose: 100.0 mg/kg/injection, schedule: Q01DX001 (ip), vehicle: saline with Tween-80 91 % of control | [4] 100 % of control | endpoint: mean survival time, dose: 200.0 mg/kg/injection, schedule: Q01DX001 (ip), vehicle: saline with Tween-80 100 % of control | [6] 100 % of control | endpoint: mean survival time, dose: 400.0 mg/kg/injection, schedule: Q01DX001 (ip), vehicle: saline with Tween-80 100 % of control | [8] 100 % of control

NC(Cn1ccc(=O)c(O)c1)C(=O)O (configuration not stated)
inactive: endpoint: median survival time, dose: 50.0 mg/kg/injection, schedule: Q01DX009 (ip), vehicle: saline 106 % of control | endpoint: median survival time, dose: 100.0 mg/kg/injection, schedule: Q01DX009 (ip), vehicle: saline 107 % of control | endpoint: median survival time, dose: 200.0 mg/kg/injection, schedule: Q01DX009 (ip), vehicle: saline 107 % of control | endpoint: median survival time, dose: 400.0 mg/kg/injection, schedule: Q01DX009 (ip), vehicle: saline 114 % of control

O=S(=O)(F)c1cccc(Cl)c1C[P+](c1ccccc1)(c1ccccc1)c1ccccc1
inactive: endpoint: mean survival time, dose: 12.5 mg/kg/injection, schedule: Q01DX001 (ip), vehicle: Klucel (hydroxypropylcellulose) (HPC) 103 % of control | endpoint: mean survival time, dose: 25.0 mg/kg/injection, schedule: Q01DX001 (ip), vehicle: Klucel (hydroxypropylcellulose) (HPC) 115 % of control

Oc1cc(O)c2c(c1)OC(c1ccc(O)c(O)c1)C(OC1(c3cc(O)c(O)c(O)c3)Oc3cc(O)cc(O)c3C(O)C1O)C2 (configuration not stated)
inactive: [10] 109 % of control | [11] 95 % of control | endpoint: mean survival time, dose: 400.0 mg/kg/injection, schedule: Q04DX003 (ip), vehicle: saline 107 % of control

O=C1CSCC(=O)N1
inactive: endpoint: mean survival time, dose: 100.0 mg/kg/injection, schedule: Q04DX003 (ip), vehicle: other 111 % of control | endpoint: mean survival time, dose: 200.0 mg/kg/injection, schedule: Q04DX003 (ip), vehicle: other 111 % of control | endpoint: mean survival time, dose: 400.0 mg/kg/injection, schedule: Q04DX003 (ip), vehicle: other 98 % of control

CC(C)(C)c1cccc(C(C)(C)C)c1O
inactive: endpoint: mean survival time, dose: 100.0 mg/kg/injection, schedule: Q01DX009 (ip), vehicle: saline 95 % of control | endpoint: mean survival time, dose: 200.0 mg/kg/injection, schedule: Q01DX009 (ip), vehicle: saline 94 % of control | endpoint: mean survival time, dose: 400.0 mg/kg/injection, schedule: Q01DX009 (ip), vehicle: saline 106 % of control

O=C(O)Cc1cc(O)c(CC(=O)O)cc1O
inactive: [1] 95 % of control | [2] 95 % of control | [3] 91 % of control

CC(=O)OC1C(OC(C)=O)C(OC(C)=O)C(OC(C)=O)C(OC(C)=O)C1OC(C)=O (configuration not stated)
inactive: [1] 100 % of control | [2] 86 % of control | [3] 93 % of control

O=NN1Cc2ccccc2C1=O
inactive: [4] 96 % of control | [6] 94 % of control | [8] 94 % of control

NCCC(O)C(=O)NC1CC(N)C(OC2OC(CN)C(O)C(O)C2O)C(O)C1OC1OC(CO)C(O)C(N)C1O (configuration not stated)
inactive: endpoint: mean survival time, dose: 10.0 mg/kg/injection, schedule: Q04DX003 (ip), vehicle: saline 95 % of control | endpoint: mean survival time, dose: 20.0 mg/kg/injection, schedule: Q04DX003 (ip), vehicle: saline 90 % of control | endpoint: mean survival time, dose: 40.0 mg/kg/injection, schedule: Q04DX003 (ip), vehicle: saline 93 % of control

CC(=O)Nc1cccc(C(F)(F)F)c1
inactive: endpoint: mean survival time, dose: 50.0 mg/kg/injection, schedule: Q01DX009 (ip), vehicle: Klucel (hydroxypropylcellulose) (HPC) 100 % of control | endpoint: mean survival time, dose: 100.0 mg/kg/injection, schedule: Q01DX009 (ip), vehicle: Klucel (hydroxypropylcellulose) (HPC) 93 % of control | endpoint: mean survival time, dose: 200.0 mg/kg/injection, schedule: Q01DX009 (ip), vehicle: Klucel (hydroxypropylcellulose) (HPC) 100 % of control

Nc1c(C(=O)NOCc2ccccc2)ncn1C1CCCC1
inactive: endpoint: mean survival time, dose: 50.0 mg/kg/injection, schedule: Q01DX001 (ip), vehicle: other 104 % of control | endpoint: mean survival time, dose: 100.0 mg/kg/injection, schedule: Q01DX001 (ip), vehicle: other 102 % of control

C#CCOC(=O)Nc1cccc(OC(=O)NC)c1
inactive: [5] 99 % of control | [7] 101 % of control | [9] 97 % of control

C(=N\N=C(c1ccccc1)c1ccccc1)/c1ccc2c(c1)CCC2
inactive: [5] 87 % of control | [7] 95 % of control | [9] 91 % of control

O=C(O)CCCCCSc1nn(C2OC(CO)C(O)C2O)c(=O)[nH]c1=O (configuration not stated)
inactive: endpoint: mean survival time, dose: 12.5 mg/kg/injection, schedule: Q01DX005 (ip), vehicle: distilled water + Tween-80 112 % of control | endpoint: mean survival time, dose: 25.0 mg/kg/injection, schedule: Q01DX005 (ip), vehicle: distilled water + Tween-80 104 % of control | endpoint: mean survival time, dose: 50.0 mg/kg/injection, schedule: Q01DX005 (ip), vehicle: distilled water + Tween-80 104 % of control | endpoint: mean survival time, dose: 100.0 mg/kg/injection, schedule: Q01DX005 (ip), vehicle: distilled water + Tween-80 104 % of control | endpoint: mean survival time, dose: 200.0 mg/kg/injection, schedule: Q01DX005 (ip), vehicle: distilled water + Tween-80 104 % of control

Reference: PubChem BioAssay AID256 (DTP/NCI, 2004)
